Consider two molecules from ChEMBL document CHEMBL1150928, “A new antitubercular mulinane diterpenoid from Azorella madreporica Clos” (J Nat Prod, 1998).

One assay deals with Vero. In words: Cytotoxicity against african green monkey Vero cells. It counts as cell-based. The following applies: Chlorocebus sabaeus.
The test system of assay [1] is Mycobacterium tuberculosis. In words: Antitubercular activity against Mycobacterium tuberculosis H37Rv ATCC 27294. It counts as functional.

In brackets after ≈: the same amount, converted by molar mass.

As for `CO[C@H]1/C=C/O[C@@]2(C)Oc3c(C)c(O)c4c(O)c(c(/C=N/N5CCN(C)CC5)c(O)c4c3C2=O)NC(=O)/C(C)=C\C=C\[C@H](C)[C@H](O)[C@@H](C)[C@@H](O)[C@@H](C)[C@H](OC(C)=O)[C@@H]1C` [RIFAMPIN], the IC50 in the assay on Vero was more than 158 µg/mL.
Take `CC(C)[C@H]1CC[C@@H]2[C@]1(C)CC[C@@]1(C)CC[C@@](C)(O)[C@@H]3C[C@@]231`: the MIC in assay [1] worked out at 20 µg/mL (≈ 68.8 µM). Also, the IC50 in the assay with Vero came out at 184 µg/mL (≈ 633 µM).
